This is an account of results in patent US5556862A, “Pharmaceutical compositions containing isoquinoline derivatives” (Nippon Zoki Pharmaceutical Co., Ltd., priority 1993, dated 1996).

This assay has as its target PDEIV. In words: Inhibitory activity towards phosphodiesterase type IV isozyme ([3H] cAMP substrate, in the presence of 10 μM cilostazol). As to conditions: type IV isozyme from porcine artery, 30° C. It is filed as biochemical.

Where a name gives a salt, the structure may show the parent alone.

Broadly, the IC50 is the midpoint of a concentration-inhibition curve. With `CCOc1ccc(CC2=NCCc3cc(OCC)c(OCC)cc32)cc1OCC` [Compound 4, 1-(3',4'-Diethoxybenzyl)-6,7-diethoxy-3,4-dihydroisoquinoline hydrochloride], where the note is “pH 7.5, hydrochloride”, the IC50 amounted to 8.1 µM.
With `CCOc1ccc(CC2=NCCc3cc(OCC)c(OCC)cc32)cc1OCC` [Compound 6, 1-(3',4'-Diethoxybenzyl)-6,7-diethoxy-3,4-dihydroisoquinolinium-theophylline-7-acetate monohydrate], for the setting “pH 7.5, monohydrate”, the IC50 came out at 17.2 µM.
As to `CCCCOc1cc(CC2CNC(=O)N2)ccc1OC` (stereo not drawn) [Ro20-1724, reference compound], the IC50 (pH 7.5) is 26.1 µM.
